The record followed here is patent publication US20020168365A1, “Method for modulating granzyme B uptake and for identifying modulators thereof” (priority 2000, published 2002).

The subject of one data set is CI-MPR^+ cells. The experiment in a line: TUNEL and annexin V apoptosis assays with grB and AD. The data set is classed as cell-based, murine L cells transfected with human CI-MPR. How it is done:
(§1) For the in vitro killing assays, 10 pfu per cell of replication-deficient adenovirus (AD) were added subsequent to grB addition. Analysis of DNA fragmentation by TUNEL analysis has been described previously (Heibein et al., 1999). TUNEL materials (Roche Diagnostics) were used as per the manufacturer's instructions. Phosphatidylserine externalization was measured as previously described (Heibein et al., 1999) using annexin V-FITC (PharMingen). Percent specific TUNEL/annexin V positive cells was calculated as: [(% positive labeling cells with grB and AD-% positive labeling cells without grB and AD)/(100-% positive labeling cells without grB and AD)]×100.

Data set [1] can be described thus: grB enzymatic activity (ASPase assay). The data set is classed as biochemical, human. From the text: Human grB was purified from the cytolytic granules of YT-Indy cells as described previously (Caputo et al., 1999). GrB was derivatized with sulfo-NHS-biotin (Pierce) or OG 488 (Molecular Probes) as per the manufacturer's directions for labeling protein. Derivatized grB was separated from unbound probe by passing the material through a Sephadex G-25 column (HiTrapθ Desalting column, Pharmacia Biotech) with saline or phosphate-buffered saline (PBS) as the buffer. Typically the concentration of unlabeled grB was ˜50 μg/ml, whereas the estimated concentration of derivatized material was ˜5 μg/ml. GrB was assayed for enzymatic activity using an ASPase assay as previously described (Caputo et al., 1993).

Another data set deals with Jurkat cells. In words: TUNEL and annexin V apoptosis assays with grB and AD. It counts as cell-based, human. How it is done:
(§2) GrB was treated for 1 hr at 37° C. in a phosphate-free (saline) or a high-phosphate (64.5 mM Na2HPO4.7H2O, 21 mM KH2PO4) buffer with calf intestinal alkaline phosphatase (1-10 U), 20 nM of the 37 kDa catalytic subunit of recombinant protein phosphatase-1 (Bagu et al, 1997), or with vehicle control. Cells were then incubated with the treated grB at 4° C. for 30-60 min. For the TUNEL or annexin V assays, cells were then washed twice before incubation at 37° C. with AD.
M6P and various other monosaccharides at different concentrations were added to cells for 15 min at 4° C. before the addition of labeled grB, or at room temperature before the addition of grB and AD.
GrB was incubated with sCI-MPR at various concentrations in PBS/0.1% BSA for 30 min at 4° C. Subsequently, cells were incubated with grB/sCI-MPR for 30-60 min at 4° C. and washed twice, before analysis of binding, or before the addition of AD for TUNEL and annexin V analysis.
as §1
Cells were resuspended at 10^6 cells/ml in 0.1% BSA/DMEM. Adenovirus (10 PFU/cell) and granzyme B (grB) were added directly to the cell suspension. Cells were incubated at 37° C. for 3 h. For staurosporine killing, cells were resuspended at 10^6 cells/ml in their normal growth medium and staurosporine (2.5 μM) was added directly to the cell suspension. Cells were incubated at 37° C. for 2, 4 and 8 h.
(§3) DNA fragmentation was monitored by flow cytometric analysis via the terminal deoxynucleotidyltransferase-mediated dUTP-biotin nick end labeling (TUNEL) method. Flow cytometric analysis was performed on a Becton Dickinson FACScanθ flow cytometer equipped with an argon-ion laser with 15 mW of excitation at 488 nm. Emission wavelengths were detected through the FL1 channel. Data were acquired on 10,000 cells per sample with light scatter signals at linear gain and fluorescence signals at logarithmic gain. Percent specific TUNEL positive cells was calculated as follows: [(% positive labeling cells with grB and AD−% positive labeling cells without grB and AD)/(AD−% positive labeling cells without grB and AD)]×100.
as §3, with “Phosphatidylserine externalization” for “DNA fragmentation”, “monitored using the ApoAlertθ annexin V apoptosis kit (Clontech) according to the protocol provided” for “monitored”, “by” for “by flow cytometric analysis via”, “manufacturer.” for “terminal deoxynucleotidyltransferase-mediated dUTP-biotin nick end labeling (TUNEL) method.”, “Annexin V” for “TUNEL”

In the next data set the test system is CD-MPR^+ cells. The data set is described as above. The data set is classed as cell-based, murine L cells transfected with human CD-MPR. The settings on record: 100 ng/ml grB and AD, 3 hr. How it is done:
as §1

Data set [2] relates to L cells and the MPR-transfected L cell lines. The experiment in a line: GrB binding assay (flow cytometry). The settings on record: grB treated with alkaline phosphatase in the absence of phosphate. The arrangement: species or system murine. How it is done: Cells (1-2×10^5) were washed twice and resuspended in buffer before the addition of grB-biotin or -OG in a final volume of 20 μl for a 30-60 min incubation and washed again twice. In the case of grB-biotin, cells were then incubated with streptavidin-cychrome for 20 min and washed twice. Unless otherwise indicated, ˜25 ng grB-biotin or -OG was used to label cells. All steps of the assay were carried out at 4° C. to prevent intracellular uptake of grB. PBS/0.1% BSA buffer was used throughout the procedure. In some cases, results are presented as the relative MFI, which represents the MFI of the grB-labeled population minus the MFI of the unlabeled population.
as §2
A general note: In flow cytometry, cells or beads pass a laser one at a time.

Where [3] appears, read: grB treated with catalytic subunit of protein phosphatase-1 (data not shown).

As for “grB: Human serine proteinase granzyme B purified from the cytolytic granules of YT-Indy cells”, the “TUNEL and annexin V positive cells” value is roughly 100% in the data set with CI-MPR^+ cells (at later times (data not shown)) and “about 30%” in the data set on CI-MPR^+ cells (at the time-point of the assay (3 hr)). In addition, the “enzymatic activity of grB” value is listed as “did not lose” in data set [1] (setting [3]) and “no effect” in data set [1] (grB treated with phosphatase in a phosphate-free buffer). The “percentage of TUNEL/annexin V positive cells” value with Jurkat cells (Jurkat cells incubated with only grB (no AD)) is recorded as “under 8%”. In the data set on Jurkat cells (Jurkat cells, 3 hr, varying concentrations of grB and AD (Example 2)), the “TUNEL and annexin V labeling” value was “significant TUNEL and annexin V labeling”. Also, the “ability to induce apoptosis of Jurkat cells” value in the data set with Jurkat cells (setting [3]) is “did not lose”. Also, the “concentration sufficient to elicit effective Jurkat cell killing” value in the data set with Jurkat cells (granule-purified grB with AD (FIG. 3C)) is given as “less than 1 ng/ml”. The “annexin V binding after grB and AD” value with CD-MPR^+ cells was “did not bind annexin V”. The “grB and AD-mediated DNA fragmentation” value with CD-MPR^+ cells was “resistant”. In addition, in data set [2], the “binding to L cells and the MPR-transfected L cell lines” value is on record as “dramatic decrease in binding”.
